Here are results for ten compounds from US4130559A, “Method for the preparation of 6-aminopenicillinic acid derivatives” (priority 1977, dated 1978).

≈ marks a conversion by molar mass, not a printed value. Like-named read-outs stand apart in the source and are kept apart here. Some results are limits rather than exact numbers.

A short description of series [1]: Acid resistance (half-life period). It counts as physicochemical. The method, then:
(§1) All compounds of this group were prepared in the form of sodium salts. Bactericidal activity, degree of hydrolysis with staphylococc penicillinase and acid resistance of the penicillins were determined.

In the next series the test system is B.Subtitis ATCC6633. The experiment in a line: Minimal bacteriostatic concentration. Conditions: sodium salts. It counts as cell-based. On the procedure:
as §1

For another series, the system named is E.coli O-55. Kind of series: Minimal bacteriostatic concentration. The format is cell-based. Conditions: Escherichia coli. On the procedure: as §1
The test system of a further series is E.typhi. Kind of series: Minimal bacteriostatic concentration. It counts as cell-based. Conditions: read-out: Minimal Bacteriostatic Concentration. The method, then:
as §1

The test system of the next series is Myco smegmatis. Kind of series: Minimal bacteriostatic concentration. The format is cell-based. The conditions noted are these: sodium salts. On the procedure: as §1
A further series concerns Prot.vulgaris. Kind of series: Minimal bacteriostatic concentration. It counts as cell-based. The conditions noted are these: Proteus vulgaris, sodium salts. The method, then:
as §1

A further series deals with Ps.aeruginosa. Kind of series: Minimal bacteriostatic concentration. It counts as cell-based. The conditions noted are these: Pseudomonas aeruginosa, sodium salts. On the procedure: as §1
In a further series the test system is Sh.dysenteriae Flexneri. The experiment in a line: Minimal bacteriostatic concentration. It counts as cell-based. Conditions: Shigella dysenteriae, read-out: Minimal Bacteriostatic Concentration. On the procedure:
as §1

Another series deals with Staph. albus. The experiment in a line: Minimal bacteriostatic concentration. The format is cell-based. Conditions: sodium salts. On the procedure: as §1
Series [2] deals with Staph. aureus 209p (adapted to benzylpenicillin). Kind of series: Minimal bacteriostatic concentration. It counts as cell-based. Conditions: Staphylococcus aureus, read-out: Minimal Bacteriostatic Concentration. The method, then: as §1
The subject of a further series is Staph. aureus 209p. Kind of series: Minimal bacteriostatic concentration. The format is cell-based. Conditions: Staphylococcus aureus, sodium salts. The method, then:
as §1

A further series deals with Strept. pyrogenes. Kind of series: Minimal bacteriostatic concentration. The format is cell-based. The conditions noted are these: sodium salts. The method, then:
as §1

The next series deals with Vibrion Metschnicoff. The experiment in a line: Minimal bacteriostatic concentration. It counts as cell-based. Conditions: read-out: Minimal Bacteriostatic Concentration. The method, then:
as §1

The target in series [3] is T1, staphylococc penicillinase (Staphylococcus aureus, UniProt P00807). Kind of series: Hydrolysis/inactivation by staphylococc penicillinase. Conditions: for Quantity of inactivated units of compounds under the action of 1 unit of staphylococc penicillinase: Table 5. The format is biochemical. On the procedure: as §1
T1 sequence (P00807 25-281): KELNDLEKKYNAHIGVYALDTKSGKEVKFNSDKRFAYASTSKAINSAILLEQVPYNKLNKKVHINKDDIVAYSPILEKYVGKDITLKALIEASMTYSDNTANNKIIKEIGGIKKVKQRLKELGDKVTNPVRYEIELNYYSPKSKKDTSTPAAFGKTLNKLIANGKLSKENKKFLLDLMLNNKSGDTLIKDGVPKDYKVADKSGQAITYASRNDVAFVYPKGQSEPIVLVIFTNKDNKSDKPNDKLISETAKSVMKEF
The substitution of propoxy radical for iso-radical in this position is not accompanied by areduction of penicillin stability against penicillinase which is not observed in the orto- and para-positions. During the subsequent hours of inactivation the rate of hydrolysis of penicillins slightly increases. However, even when observed in dynamics, their stability against penicillianase still persists during 4-hour-inactivation.

The nature of another series: in vivo. Conditions: mouse, iv.
Series [4] deals with T1, staphylococc penicillinase. The conditions noted are these: cited from earlier work.
[5] abbreviates: acid ph 1.3, pH 1.3, under conditions of our experiments, read-out: half-life period.
Where [6] appears, read: O55, read-out: Minimal Bacteriostatic Concentration.
Where [7] appears, read: Vibrion Metschnicoff, sodium salts.
Where [8] appears, read: O55, E.coli O-55, sodium salts, read-out: Minimal Bacteriostatic Concentration.
The mark [9] stands for this setting: acid ph 1.3, Temperature 37° C, pH 1.3, Table 1, cyclopentyl series, read-out: τ1/2 half-life period (acid resistance).

Consider `CC1(C)S[C@@H]2[C@H](NC(=O)Cc3ccccc3)C(=O)N2[C@H]1C(=O)O` [Benzyl Penicillin, benzylpenicillin, reference compound], for which the half-life in [1] (setting [5]) is 2.1 min. Further, the MIC with B.Subtitis ATCC6633 is 0.048 mg/L; with E.coli O-55 (setting [6]), 31.2 mg/L (≈ 93.3 µM); in the series with E.typhi it was 0.39 mg/L (≈ 1.17 µM); with Myco smegmatis, above 500 mg/L; in the series with Prot.vulgaris it was 1.56 mg/L; in the series with Ps.aeruginosa, above 500 mg/L. Besides, the MIC with Sh.dysenteriae Flexneri was 3.12 mg/L (≈ 9.33 µM); with Staph. albus, 0.006 mg/L; in series [2] it was above 500 mg/L; in the series with Staph. aureus 209p, 0.012 mg/L; with Strept. pyrogenes it was 0.003 mg/L; in the series with Vibrion Metschnicoff (setting [7]) it was 0.78 mg/L.
Regarding `CC1(C)SC2C(NC(=O)C3(c4ccccc4)CCCC3)C(=O)N2C1C(=O)O` (stereo not drawn) [Compound I (Table 1), 1-Phenylcyclopentyl-1-Penicillin], the half-life in series [1] (setting [5]) was found to be 26 min. In series [3], the “Quantity of inactivated units of compounds under the action of 1 unit of staphylococc penicillinase” value (shortened to “Quantity”) worked out at 0 units. The same compound yielded a stability against penicillinase in series [3] (during the first hour after inactivation, 60 min) of 100%. For the same compound, the MIC in the series on B.Subtitis ATCC6633 is 0.09 mg/L; in the series on E.coli O-55 (setting [8]), 500 mg/L; in the series on E.typhi, 62.5 mg/L (≈ 161 µM); with Myco smegmatis, above 500 mg/L; in the series with Prot.vulgaris it was 250 mg/L; with Ps.aeruginosa it was above 500 mg/L. In addition, the MIC with Sh.dysenteriae Flexneri is 125 mg/L (≈ 322 µM); with Staph. albus it was 0.048 mg/L; in series [2] it was above 500 mg/L; with Staph. aureus 209p, 0.048 mg/L; with Strept. pyrogenes it was 0.012 mg/L; in the series with Vibrion Metschnicoff, 0.24 mg/L (≈ 0.618 µM). The same compound displayed an MTD in “in vivo” of 500 mg/kg.
Regarding `CCOc1ccccc1C1(C(=O)NC2C(=O)N3C2SC(C)(C)C3C(=O)O)CCCC1` (stereo not drawn) [Compound III (Table 1)], in series [1] (setting [9]), the half-life was 102 min. The “Quantity” value in series [3] stood at 20.5 units. Further, the MIC in the series on B.Subtitis ATCC6633 was 7.8 mg/L; in the series on E.coli O-55 (setting [8]), 500 mg/L; in the series with E.typhi it was 62.5 mg/L (≈ 144 µM); with Myco smegmatis it was above 500 mg/L; in the series with Prot.vulgaris it was 500 mg/L; in the series with Ps.aeruginosa it was above 500 mg/L. The MIC in the series on Sh.dysenteriae Flexneri was 125 mg/L (≈ 289 µM); in the series with Staph. albus, 0.39 mg/L; in series [2], above 500 mg/L; with Staph. aureus 209p it was 0.78 mg/L; with Strept. pyrogenes, 0.78 mg/L; in the series on Vibrion Metschnicoff (setting [7]), 0.9 mg/L. Moreover, the MTD in the series “in vivo” amounted to 1000 mg/kg.
In the case of `CCCOc1ccccc1C1(C(=O)NC2C(=O)N3C2SC(C)(C)C3C(=O)O)CCCC1` (stereo not drawn) [Compound IV (Table 1)], the half-life in [1] (setting [9]) is 14.9 min. The “Quantity” value in series [3] is given as 20.45 units. Besides, the MIC in the series on B.Subtitis ATCC6633 was 15.6 mg/L; with E.coli O-55 (setting [8]) it was above 125 mg/L; in the series on E.typhi, 62.5 mg/L (≈ 140 µM); with Myco smegmatis, above 500 mg/L; in the series on Prot.vulgaris it was 500 mg/L; with Ps.aeruginosa, above 500 mg/L. Besides, the MIC in the series with Sh.dysenteriae Flexneri is 125 mg/L (≈ 280 µM); in the series with Staph. albus, 0.39 mg/L; in [2], above 500 mg/L; in the series on Staph. aureus 209p, 0.19 mg/L; in the series with Strept. pyrogenes it was 0.39 mg/L; in the series on Vibrion Metschnicoff (setting [7]), 0.9 mg/L. In the series “in vivo”, this compound returned an MTD of 1500 mg/kg.
For the compound `CCCOc1cccc(C2(C(=O)NC3C(=O)N4C3SC(C)(C)C4C(=O)O)CCCC2)c1` (stereo not drawn) [Compound IX (Table 1), 1-(m-propoxyphenyl)Cyclopentyl-1-Penicillin], the half-life in [1] (setting [9]) came to 222 min. For the same compound, the “Quantity” value in series [3] was determined as 10.6 units. Also, the MIC with B.Subtitis ATCC6633 is 0.9 mg/L; in the series with E.coli O-55 (setting [6]) it was 250 mg/L (≈ 560 µM); in the series on E.typhi, 15.6 mg/L (≈ 34.9 µM); in the series with Myco smegmatis, above 500 mg/L; with Prot.vulgaris, 125 mg/L; with Ps.aeruginosa it was above 500 mg/L. Besides, the MIC in the series on Sh.dysenteriae Flexneri was 62.5 mg/L (≈ 140 µM); in the series on Staph. albus it was 0.19 mg/L; in series [2], above 500 mg/L; with Staph. aureus 209p, 0.39 mg/L; in the series with Strept. pyrogenes, 0.39 mg/L; with Vibrion Metschnicoff (setting [7]), 3.9 mg/L. Also, the MTD in “in vivo” came to 1500 mg/kg.
For the compound `CC(C)Oc1ccccc1C1(C(=O)NC2C(=O)N3C2SC(C)(C)C3C(=O)O)CCCC1` (stereo not drawn) [Compound V (Table 1)], the half-life in [1] (setting [9]) is 10.3 min. Also, the “Quantity” value in [3] was 12.0 units. Further, the MIC in the series on B.Subtitis ATCC6633 was 7.8 mg/L; with E.coli O-55 (setting [8]), 500 mg/L; in the series with E.typhi, 125 mg/L (≈ 280 µM); in the series with Myco smegmatis, above 500 mg/L; in the series with Prot.vulgaris, 500 mg/L; in the series on Ps.aeruginosa, above 500 mg/L. The MIC in the series on Sh.dysenteriae Flexneri is 250 mg/L (≈ 560 µM); in the series with Staph. albus, 0.39 mg/L; in [2], above 500 mg/L; in the series on Staph. aureus 209p, 0.39 mg/L; with Strept. pyrogenes it was 0.78 mg/L; in the series on Vibrion Metschnicoff (setting [7]), 0.9 mg/L. This compound came in with an MTD in “in vivo” of 1000 to 1500 mg/kg.
For the compound `CCCCOc1ccccc1C1(C(=O)NC2C(=O)N3C2SC(C)(C)C3C(=O)O)CCCC1` (stereo not drawn) [Compound VI (Table 1), 1-(o-Butoxyphenyl)Cyclopentyl-1-Pencillin], the half-life in [1] (setting [9]) is 14.8 min. The “Quantity” value in series [3] turned out to be 16.6 units. For the same compound, the MIC in the series on B.Subtitis ATCC6633 is 15.6 mg/L; in the series on E.coli O-55 (setting [8]), 500 mg/L; with E.typhi, 125 mg/L (≈ 271 µM); with Myco smegmatis, above 500 mg/L; in the series on Prot.vulgaris, 500 mg/L; in the series with Ps.aeruginosa it was above 500 mg/L. The MIC with Sh.dysenteriae Flexneri is 250 mg/L (≈ 543 µM); in the series with Staph. albus, 0.19 mg/L; in [2], above 500 mg/L; in the series on Staph. aureus 209p it was 0.39 mg/L; with Strept. pyrogenes it was 0.39 mg/L; in the series on Vibrion Metschnicoff (setting [7]), 1.56 mg/L. This compound showed an MTD in “in vivo” of 1000 mg/kg.
For `CCOc1cccc(C2(C(=O)NC3C(=O)N4C3SC(C)(C)C4C(=O)O)CCCC2)c1` (stereo not drawn) [Compound VIII (Table 1)], the half-life in series [1] (setting [9]) was determined as 189 min. The “Quantity” value in [3] is listed as 10.0 units. Further, the MIC in the series with B.Subtitis ATCC6633 was 0.9 mg/L; in the series with E.coli O-55 (setting [6]), 250 mg/L (≈ 578 µM); in the series with E.typhi, 31.2 mg/L (≈ 72.1 µM); in the series on Myco smegmatis, above 500 mg/L; in the series with Prot.vulgaris, 250 mg/L; with Ps.aeruginosa, above 500 mg/L. Moreover, the MIC was 125 mg/L (≈ 289 µM) in the series on Sh.dysenteriae Flexneri; 0.19 mg/L with Staph. albus; above 500 mg/L in [2]; 0.39 mg/L in the series with Staph. aureus 209p; 0.39 mg/L in the series on Strept. pyrogenes; 3.9 mg/L with Vibrion Metschnicoff (setting [7]). The MTD in “in vivo” is 1500 mg/kg.
In the case of `CC(C)Oc1cccc(C2(C(=O)NC3C(=O)N4C3SC(C)(C)C4C(=O)O)CCCC2)c1` (stereo not drawn) [Compound X (Table 1)], the half-life in series [1] (setting [9]) worked out at 25.9 min. Besides, the “Quantity” value in series [3] came out at 27.5 units. For the same compound, the MIC with B.Subtitis ATCC6633 was 7.8 mg/L; in the series with E.coli O-55 (setting [6]), 250 mg/L (≈ 560 µM); in the series with E.typhi it was 15.6 mg/L (≈ 34.9 µM); in the series with Myco smegmatis it was above 500 mg/L; in the series with Prot.vulgaris, 250 mg/L; in the series with Ps.aeruginosa, above 500 mg/L. Moreover, the MIC with Sh.dysenteriae Flexneri is 62.5 mg/L (≈ 140 µM); with Staph. albus, 0.19 mg/L; in [2], above 500 mg/L; in the series on Staph. aureus 209p, 0.39 mg/L; in the series on Strept. pyrogenes it was 0.19 mg/L; with Vibrion Metschnicoff (setting [7]), 3.9 mg/L. In addition, the MTD in the series “in vivo” came to 1500 mg/kg.
For the compound `COc1cccc(OC)c1C(=O)N[C@@H]1C(=O)N2[C@@H]1SC(C)(C)[C@@H]2C(=O)O` [methycillin], the “penicillinase resistance (background statement)” value in series [4] is recorded as “penicillinase resistant”.
